Results: patent US8093279B2, “Compound” (priority 2005, dated 2012)

Tests used:
Aromatase = target: T1, Aromatase (Homo sapiens, UniProt P11511); experiment: Aromatase activity in JEG3 choriocarcinoma cells (Protocol 6); assay type: cell-based; details: for IC50: JEG3 cells
T1 construct: host or cells: JEG3 choriocarcinoma cells (intact monolayers)
T1 sequence (P11511 1-503): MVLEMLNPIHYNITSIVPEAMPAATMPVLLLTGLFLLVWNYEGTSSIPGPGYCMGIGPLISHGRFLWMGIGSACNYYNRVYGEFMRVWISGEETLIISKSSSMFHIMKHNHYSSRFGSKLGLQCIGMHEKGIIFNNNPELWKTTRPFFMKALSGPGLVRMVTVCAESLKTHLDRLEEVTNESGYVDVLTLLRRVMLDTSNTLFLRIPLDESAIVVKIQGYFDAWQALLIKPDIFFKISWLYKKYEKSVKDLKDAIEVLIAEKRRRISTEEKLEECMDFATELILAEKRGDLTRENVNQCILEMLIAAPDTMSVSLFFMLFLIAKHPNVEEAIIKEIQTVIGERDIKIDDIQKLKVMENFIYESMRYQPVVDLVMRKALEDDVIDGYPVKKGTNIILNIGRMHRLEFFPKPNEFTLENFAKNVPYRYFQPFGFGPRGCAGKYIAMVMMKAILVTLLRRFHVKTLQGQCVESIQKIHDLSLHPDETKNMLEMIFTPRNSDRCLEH
Protocol: Aromatase activity is measured in JEG3 choriocarcinoma cells, obtained from the ATCC.
During the aromatase reaction, ^3H2O is liberated which can be quantified using a liquid scintillation spectrometer (Beckman-Coulter, High Wycombe, Bucks. UK). […] The number of cell nuclei per flask is determined using a Coulter Counter after treating the cell monolayers with Z aponin.
Unpaired Student's t test was used to test the statistical significance of results.
A number of compounds were tested for aromatase and steroid sulphatase inhibition in accordance with the above Protocols 1 and 6.

Row | melting point | JEG3-cells Aromatase, % at single concentration (Aromatase; @ 1 μM) | SMILES | IC50 (Aromatase)
1 | 139 to 142 °C |  | N#Cc1ccc(Cn2cncn2)c(-c2ccc(OS(N)(=O)=O)c(Cl)c2)c1 [Compound 53, 2′-((1H-1,2,4-triazol-1-yl)methyl)-3-chloro-5′-cyanobiphenyl-4-yl sulfamate] | < 1 µM
2 | 74 to 76 °C |  | CC(C)(C#N)c1cc(Cn2cncn2)cc(-c2ccc(OS(N)(=O)=O)cc2)c1 [Compound 56, 3′-((1H-1,2,4-triazol-1-yl)methyl)-5′-(2-cyanopropan-2-yl)biphenyl-4-yl sulfamate] | < 1 µM
3 |  |  | Oc1ccc(-c2cccc(Cn3cncn3)c2)cc1Cl [compound 1519] | < 1 µM
4 | 195 to 197 °C |  | N#Cc1cc(Cn2cncn2)ccc1-c1ccc(O)c(Cl)c1 [Compound 49, 4-((1H-1,2,4-triazol-1-yl)methyl)-3′-chloro-4′-hydroxybiphenyl-2-carbonitrile] | < 1 µM
5 |  |  | Fc1cccc(-c2cccc(Cn3cncn3)c2)c1 [compound 1524] | < 1 µM
6 |  |  | N#Cc1ccc(-c2cccc(Cn3cncn3)c2)cc1 [compound 1459] | < 1 µM
7 | 148 to 150 °C |  | N#Cc1ccc(Cn2cncn2)cc1-c1ccc(Cl)c(OS(N)(=O)=O)c1 [Compound 26, 5′-((1H-1,2,4-triazol-1-yl)methyl)-4-chloro-2′-cyanobiphenyl-3-yl sulfamate] | < 1 µM
8 |  |  | c1cc(Cn2cncn2)cc(-c2ccc3ccccc3c2)c1 [compound 1385] | < 1 µM
9 |  |  | Oc1cccc(-c2cccc(Cn3cncn3)c2)c1 [compound 1840] | < 1 µM
10 |  |  | c1ccc(-c2cccc(Cn3cncn3)c2)cc1 [compound 1361] | < 1 µM
11 |  |  | Oc1ccc(-c2cccc(Cn3cncn3)c2)cc1 [compound 1387] | < 1 µM
12 |  |  | COc1ccc(-c2cccc(Cn3cncn3)c2)cc1Cl [compound 1512] | < 1 µM
13 | 134 to 135 °C |  | N#Cc1cc(Cn2cncn2)cc(-c2ccc(F)cc2)c1 [Compound 35, 5-((1H-1,2,4-triazol-1-yl)methyl)-4′-fluorobiphenyl-3-carbonitrile] | < 1 µM
14 |  |  | Clc1ccc(-c2cccc(Cn3cncn3)c2)cc1 [compound 1386] | < 1 µM
15 |  |  | CN(C)S(=O)(=O)Oc1ccc(-c2cc(Cn3cncn3)ccc2C#N)cc1 [Compound 21, 5′-((1H-1,2,4-triazol-1-yl)methyl)-2′-cyanobiphenyl-4-yl dimethylsulfamate] | < 1 µM
16 |  |  | O=C(c1ccccc1)c1cccc(-c2cccc(Cn3cncn3)c2)c1 [compound 1511] | < 1 µM
17 |  |  | CC(C)(C#N)c1cc(Cn2cncn2)cc(-c2cccc(Cl)c2)c1 [compound 1507] | < 1 µM
18 |  |  | Oc1ccc(-c2ccc(F)c(Cn3cncn3)c2)cc1 [compound 1842] | < 1 µM
19 |  |  | c1cc(Cn2cncn2)cc(-c2cccc3c2oc2ccccc23)c1 [compound 1839] | < 1 µM
20 |  |  | CC(C)(C#N)c1cc(Cn2cncn2)cc(-c2ccc3ccccc3c2)c1 [compound 1508] | < 1 µM

Row | melting point | JEG3-cells Aromatase, % at single concentration (Aromatase; @ 1 μM) | SMILES | IC50 (Aromatase)
21 |  |  | Fc1ccc(-c2ccccc2)cc1Cn1cncn1 [compound 1841] | < 1 µM
22 |  |  | COc1ccc2cc(-c3cccc(Cn4cncn4)c3)ccc2c1 [compound 1981] | < 1 µM
23 | 168 to 171 °C |  | N#Cc1cc(Cn2cncn2)ccc1-c1ccc(O)cc1 [Compound 47] | < 1 µM
24 |  |  | CC(C)(C#N)c1cc(Cn2cncn2)cc(-c2ccccc2)c1 [compound 1506] | < 1 µM
25 | 154 to 155 °C |  | N#Cc1ccc(-c2cc(C#N)cc(Cn3cncn3)c2)cc1 [Compound 36, 5-((1H-1,2,4-triazol-1-yl)methyl)biphenyl-3,4′-dicarbonitrile] | < 1 µM
26 |  |  | N#Cc1ccc(-c2ccc(OCc3ccccc3)cc2)cc1Cn1cncn1 [compound 1457] | < 10 µM
27 | 137 to 138 °C | 63.4 ± 2.1% @ 1 μM | N#Cc1ccc(-c2cccc(OS(N)(=O)=O)c2)cc1Cn1cncn1 [Compound 29, 3′-((1H-1,2,4-triazol-1-yl)methyl)-4′-cyanobiphenyl-3-yl sulfamate] | 
28 |  |  | Clc1cccc(-c2cccc(Cn3cncn3)c2)c1 [compound 1384] | < 1 µM
29 |  |  | CC(C)(C#N)c1cc(Cn2cncn2)cc(-c2cccc(C(=O)c3ccccc3)c2)c1 [compound 1844] | < 1 µM
30 |  |  | N#Cc1ccc(Cn2cncn2)c(-c2ccccc2)c1 [Compound 51] | < 1 µM
31 |  |  | CC(C)(C#N)c1cc(Cn2cncn2)cc(-c2cccc(C#N)c2)c1 [compound 1509] | < 1 µM
32 |  |  | Clc1cc(-c2cccc(Cn3cncn3)c2)ccc1OCc1ccccc1 [compound 1502] | < 10 µM
33 |  |  | c1ccc(-c2ccc(-c3cccc(Cn4cncn4)c3)cc2)cc1 [compound 1388] | < 10 µM
34 | 119 to 120 °C |  | CN(C)S(=O)(=O)Oc1ccc(-c2cc(Cn3cncn3)ccc2C#N)cc1Cl [Compound 24, 5′-((1H-1,2,4-triazol-1-yl)methyl)-3-chloro-2′-cyanobiphenyl-4-yl dimethylsulfamate] | < 1 µM
35 |  |  | CC(C)(C#N)c1cc(Cn2cncn2)cc(-c2ccc(O)cc2)c1 [compound 1521] | < 1 µM
36 | 228 to 229 °C |  | N#Cc1ccc(Cn2cncn2)cc1-c1ccc(Cl)c(O)c1 [Compound 25] | < 1 µM
37 |  |  | COc1ccc(-c2cccc(Cn3cncn3)c2)cc1 [compound 1452] | < 1 µM
38 |  |  | N#Cc1ccc(-c2cccc(O)c2)cc1Cn1cncn1 [compound 1843] | < 1 µM
39 |  |  | N#Cc1cccc(-c2ccc(C#N)c(Cn3cncn3)c2)c1 [compound 1505] | < 10 µM
40 | 109 to 110 °C |  | N#Cc1cc(Cn2cncn2)cc(-c2ccccc2)c1 [Compound 34, 5-((1H-1,2,4-triazol-1-yl)methyl)biphenyl-3-carbonitrile] | < 1 µM

Row | melting point | JEG3-cells Aromatase, % at single concentration (Aromatase; @ 1 μM) | SMILES | IC50 (Aromatase)
41 |  |  | c1ccc(COc2ccc(-c3cccc(Cn4cncn4)c3)cc2)cc1 [compound 1362] | < 10 µM
42 | 243 to 245 °C |  | N#Cc1ccc(Cn2cncn2)c(-c2ccc(O)c(Cl)c2)c1 [Compound 52, 6-((1H-1,2,4-triazol-1-yl)methyl)-3′-chloro-4′-hydroxybiphenyl-3-carbonitrile] | < 1 µM
43 | 166 to 167 °C |  | N#Cc1cc(Cn2cncn2)cc(-c2ccc(OS(N)(=O)=O)cc2)c1 [Compound 38, 3′-((1H-1,2,4-triazol-1-yl)methyl)-5′-cyanobiphenyl-4-yl sulfamate] | < 1 µM
44 |  |  | c1ccc(-c2ccc(Cn3cncn3)cc2)cc1 [compound 1975] | < 10 µM
45 |  |  | CC(=O)c1cccc(-c2cccc(Cn3cncn3)c2)c1 [compound 1838] | < 1 µM
46 |  |  | N#Cc1ccc(-c2ccc3ccccc3c2)cc1Cn1cncn1 [compound 1504] | < 1 µM
47 | 208 to 209 °C |  | N#Cc1cc(Cn2cncn2)cc(-c2ccc(O)c(Cl)c2)c1 [Compound 39] | < 1 µM
48 |  |  | N#Cc1ccc(-c2ccc(C#N)c(Cn3cncn3)c2)cc1 [compound 1510] | < 1 µM
49 |  |  | N#Cc1ccc(-c2cccc(Cl)c2)cc1Cn1cncn1 [compound 1503] | < 1 µM
50 |  |  | N#Cc1cccc(-c2cccc(Cn3cncn3)c2)c1 [compound 1458] | < 1 µM
51 | 186 to 187 °C |  | N#Cc1cc(Cn2cncn2)cc(-c2ccc(O)cc2)c1 [Compound 37, 5-((1H-1,2,4-triazol-1-yl)methyl)-4′-hydroxybiphenyl-3-carbonitrile] | < 1 µM
52 |  |  | c1ccc(Oc2ccccc2-c2ccc(Cn3cncn3)cc2)cc1 [compound 1835] | < 1 µM
53 |  |  | Fc1ccc(-c2cccc(Cn3cncn3)c2)cc1 [compound 1525] | < 1 µM
54 |  |  | N#Cc1ccc(-c2ccccc2)cc1Cn1cncn1 [compound 1456] | < 1 µM
55 |  |  | N#Cc1ccc(-c2ccc(O)cc2)cc1Cn1cncn1 [compound 1520] | < 1 µM
56 |  |  | N#Cc1cc(Cn2cncn2)ccc1-c1ccccc1 [Compound 46] | < 1 µM
57 |  |  | N#Cc1ccc(Cn2cncn2)cc1-c1ccccc1 [compound 1978] | < 1 µM
58 |  |  | NS(=O)(=O)Oc1ccc2cc(-c3cccc(Cn4cncn4)c3)ccc2c1 [compound 2052] | < 10 µM
